Experimental data published in publication PMC5218480 (PLoS ONE, 2017).

Tested on: MV-4-11 cells
Assay: Gene expression microarray analysis (Affymetrix PrimeView) and GSEA
Type: cell-based, human
Design: RFU PODN (11730768_x_at) / Fold change /veh PODN (11730768_x_at) / RFU LINC00158 (11744669_a_at) / Fold change /veh LINC00158 (11744669_a_at) / RFU DUSP10 (11751237_a_at) / Fold change /veh DUSP10 (11751237_a_at) / RFU ID3 (11757404_x_at) / Fold change /veh ID3 (11757404_x_at) / RFU PLEKHG5 (11737974_s_at) / Fold change /veh PLEKHG5 (11737974_s_at) / RFU LRRC4B (11730491_at) / Fold change /veh LRRC4B (11730491_at) / RFU GIMAP4 (11747438_a_at) / Fold change /veh GIMAP4 (11747438_a_at) / RFU KRT8 (11758183_x_at) / Fold change /veh KRT8 (11758183_x_at) / RFU CNN1 (11734310_a_at) / Fold change /veh CNN1 (11734310_a_at) / RFU VPS37D (11726825_at) / Fold change /veh VPS37D (11726825_at) / RFU C10orf10 (11716522_x_at) / Fold change /veh C10orf10 (11716522_x_at) / RFU KIR2DL2 /// KIR2DL4 /// KIR2DL5A /// KIR2DL5B /// KIR2DS1 /// KIR2DS2 /// KIR2DS3 /// KIR2DS4 /// KIR3DL3 /// KIR3DL3 /// KIR3DS1 (11738374_at) / Fold change /veh KIR2DL2 /// KIR2DL4 /// KIR2DL5A /// KIR2DL5B /// KIR2DS1 /// KIR2DS2 /// KIR2DS3 /// KIR2DS4 /// KIR3DL3 /// KIR3DL3 /// KIR3DS1 (11738374_at) / RFU C1QL1 (11718748_at) / Fold change /veh C1QL1 (11718748_at) / RFU TMPRSS4 (11747572_a_at) / Fold change /veh TMPRSS4 (11747572_a_at) / RFU HAMP (11756126_x_at) / Fold change /veh HAMP (11756126_x_at) / RFU RNFT2 (11725882_a_at) / Fold change /veh RNFT2 (11725882_a_at) / RFU NR4A2 (11747474_a_at) / Fold change /veh NR4A2 (11747474_a_at) / RFU ABCC12 (11746883_a_at) / Fold change /veh ABCC12 (11746883_a_at) / RFU TMEM136 (11760407_x_at) / Fold change /veh TMEM136 (11760407_x_at) / RFU CLDN22 /// WWC2 (11732394_at) / Fold change /veh CLDN22 /// WWC2 (11732394_at) / RFU HLA-DPB1 (11760878_x_at) / Fold change /veh HLA-DPB1 (11760878_x_at) / RFU SPINT1 (11716480_a_at) / Fold change /veh SPINT1 (11716480_a_at) / RFU GAP43 (11754022_s_at) / Fold change /veh GAP43 (11754022_s_at) / RFU A4GNT (11735810_at) / Fold change /veh A4GNT (11735810_at) / RFU PRB3 (11715151_x_at) / Fold change /veh PRB3 (11715151_x_at) / RFU TUBB4B (11761932_at) / Fold change /veh TUBB4B (11761932_at) / RFU CAPN14 (11732068_a_at) / Fold change /veh CAPN14 (11732068_a_at) / RFU TMCC2 (11721928_a_at) / Fold change /veh TMCC2 (11721928_a_at) / RFU IRGQ (11745062_a_at) / Fold change /veh IRGQ (11745062_a_at) / RFU FAM174B (11720279_a_at) / Fold change /veh FAM174B (11720279_a_at) / RFU TMPRSS4 (11748680_a_at) / Fold change /veh TMPRSS4 (11748680_a_at) / RFU FAM212B (11763350_a_at) / Fold change /veh FAM212B (11763350_a_at) / RFU PLEKHG5 (11743358_a_at) / Fold change /veh PLEKHG5 (11743358_a_at) / RFU ZSCAN30 (11745921_a_at) / Fold change /veh ZSCAN30 (11745921_a_at) / RFU CMKLR1 (11741424_a_at) / Fold change /veh CMKLR1 (11741424_a_at) / RFU LOC101060620 /// MAPK8IP1 (11723275_at) / Fold change /veh LOC101060620 /// MAPK8IP1 (11723275_at) / RFU SPTSSB (11747773_x_at) / Fold change /veh SPTSSB (11747773_x_at) / RFU PRSS12 (11739890_at) / Fold change /veh PRSS12 (11739890_at) / RFU BIN1 (11741810_x_at) / Fold change /veh BIN1 (11741810_x_at) / RFU WNT11 (11732464_a_at) / Fold change /veh WNT11 (11732464_a_at) / RFU C10orf10 (11716521_a_at) / Fold change /veh C10orf10 (11716521_a_at) / RFU C5orf56 (11738089_at) / Fold change /veh C5orf56 (11738089_at) / RFU CYB561 (11721691_x_at) / Fold change /veh CYB561 (11721691_x_at) / RFU ANKRD19P (11752326_a_at) / Fold change /veh ANKRD19P (11752326_a_at) / RFU OR2T12 /// OR2T33 /// OR2T8 (11738714_s_at) / Fold change /veh OR2T12 /// OR2T33 /// OR2T8 (11738714_s_at) / RFU VCAN (11748164_a_at) / Fold change /veh VCAN (11748164_a_at) / RFU JSRP1 (11732532_at) / Fold change /veh JSRP1 (11732532_at) / RFU KRTAP10-11 (11738290_x_at) / Fold change /veh KRTAP10-11 (11738290_x_at) / RFU MYO3A (11730013_a_at) / Fold change /veh MYO3A (11730013_a_at) / RFU EBF3 (11725865_a_at) / Fold change /veh EBF3 (11725865_a_at) / RFU CAMK2N1 (11719241_x_at) / Fold change /veh CAMK2N1 (11719241_x_at) / RFU C5orf56 (11738088_a_at) / Fold change /veh C5orf56 (11738088_a_at) / RFU OLFML3 (11715873_a_at) / Fold change /veh OLFML3 (11715873_a_at) / RFU LOC100653217 /// NTM (11731650_a_at) / Fold change /veh LOC100653217 /// NTM (11731650_a_at) / RFU MAPK11 (11762145_a_at) / Fold change /veh MAPK11 (11762145_a_at) / RFU FIZ1 (11724087_x_at) / Fold change /veh FIZ1 (11724087_x_at) / RFU OASL (11726364_x_at) / Fold change /veh OASL (11726364_x_at) / RFU SOX15 (11748057_x_at) / Fold change /veh SOX15 (11748057_x_at) / RFU CD79A (11719716_a_at) / Fold change /veh CD79A (11719716_a_at) / RFU HIST1H1D (11736915_at) / Fold change /veh HIST1H1D (11736915_at) / RFU CASKIN2 (11723855_a_at) / Fold change /veh CASKIN2 (11723855_a_at) / RFU LOC730098 (11760151_x_at) / Fold change /veh LOC730098 (11760151_x_at) / RFU OR4N2 (11742367_at) / Fold change /veh OR4N2 (11742367_at) / RFU PRRT2 (11749266_a_at) / Fold change /veh PRRT2 (11749266_a_at) / RFU SNX32 (11753110_a_at) / Fold change /veh SNX32 (11753110_a_at) / RFU CDHR5 (11726645_a_at) / Fold change /veh CDHR5 (11726645_a_at) / RFU RCAN1 (11760418_a_at) / Fold change /veh RCAN1 (11760418_a_at) / RFU FAM167A (11723789_a_at) / Fold change /veh FAM167A (11723789_a_at) / RFU FAM26E (11764081_at) / Fold change /veh FAM26E (11764081_at) / RFU ISYNA1 (11749810_s_at) / Fold change /veh ISYNA1 (11749810_s_at) / RFU ACY1 (11761880_at) / Fold change /veh ACY1 (11761880_at) / RFU 11764098_at / Fold change /veh 11764098_at / RFU SAMD14 (11745864_x_at) / Fold change /veh SAMD14 (11745864_x_at) / RFU NPB (11741838_a_at) / Fold change /veh NPB (11741838_a_at) / RFU TMPRSS6 (11731388_a_at) / Fold change /veh TMPRSS6 (11731388_a_at) / RFU KRTAP10-2 (11738614_at) / Fold change /veh KRTAP10-2 (11738614_at) / RFU ARHGAP8 /// PRR5-ARHGAP8 (11727945_x_at) / Fold change /veh ARHGAP8 /// PRR5-ARHGAP8 (11727945_x_at) / RFU KRTAP5-7 /// NADSYN1 (11734609_at) / Fold change /veh KRTAP5-7 /// NADSYN1 (11734609_at) / RFU RASL12 (11751679_a_at) / Fold change /veh RASL12 (11751679_a_at) / RFU CDKN2B (11736163_a_at) / Fold change /veh CDKN2B (11736163_a_at) / RFU PRF1 (11729649_at) / Fold change /veh PRF1 (11729649_at) / RFU, ZNF638 /// ZNF638-IT1 / Fold change vs veh, ZNF638 /// ZNF638-IT1 / RFU, PANK3 / Fold change vs veh, PANK3 / RFU, SH3YL1 / Fold change vs veh, SH3YL1 / RFU, ZEB2 / Fold change vs veh, ZEB2 / RFU, NRIP1 / Fold change vs veh, NRIP1 / RFU, PTTG1IP / Fold change vs veh, PTTG1IP / RFU, CAPN2 / Fold change vs veh, CAPN2 / RFU, MED14 / Fold change vs veh, MED14 / RFU, SNORA58 / Fold change vs veh, SNORA58 / RFU, C1orf63 / Fold change vs veh, C1orf63 / RFU, LRRFIP1 / Fold change vs veh, LRRFIP1 / RFU, NDUFAF7 / Fold change vs veh, NDUFAF7 / RFU, SLC12A2 / Fold change vs veh, SLC12A2 / RFU, IBTK / Fold change vs veh, IBTK / RFU, ESF1 / Fold change vs veh, ESF1 / Fold change vs veh, TMEM50B / RFU, TAOK1 / Fold change vs veh, TAOK1 / RFU, ACBD3 / Fold change vs veh, ACBD3 / RFU, TMA16 / Fold change vs veh, TMA16 / RFU, RWDD3 / Fold change vs veh, RWDD3 / RFU, BCAT1 / Fold change vs veh, BCAT1 / RFU, EDEM3 / Fold change vs veh, EDEM3 / RFU, TMEM33 / Fold change vs veh, TMEM33 / RFU, WDR75 / Fold change vs veh, WDR75 / RFU, AHCTF1 / Fold change vs veh, AHCTF1 / RFU, TFRC / Fold change vs veh, TFRC / RFU, ZDHHC17 / Fold change vs veh, ZDHHC17 / RFU, NOM1 / Fold change vs veh, NOM1 / RFU, ARL8B / Fold change vs veh, ARL8B / RFU, ZBTB11 / Fold change vs veh, ZBTB11 / RFU, TAMM41 / Fold change vs veh, TAMM41 / RFU, KIAA1704 /// LOC100996395 / Fold change vs veh, KIAA1704 /// LOC100996395 / RFU, ING1 / Fold change vs veh, ING1 / RFU, TRMT61B / Fold change vs veh, TRMT61B / RFU, FUBP3 / Fold change vs veh, FUBP3 / RFU, TP53 / Fold change vs veh, TP53 / RFU, TNKS2 / Fold change vs veh, TNKS2 / RFU, ZFP14 / Fold change vs veh, ZFP14 / RFU, ACTR2 / Fold change vs veh, ACTR2 / RFU, PPP3R1 / Fold change vs veh, PPP3R1 / RFU, PIK3R1 / Fold change vs veh, PIK3R1 / RFU, HNRNPA1 / Fold change vs veh, HNRNPA1 / RFU, RNF170 / Fold change vs veh, RNF170 / RFU, ZNF28 / Fold change vs veh, ZNF28 / RFU, RNGTT / Fold change vs veh, RNGTT / RFU, OGT / Fold change vs veh, OGT / RFU, BRD1 / Fold change vs veh, BRD1 / RFU, MARS / Fold change vs veh, MARS / RFU, ZNF655 / Fold change vs veh, ZNF655 / RFU, FAHD1 / Fold change vs veh, FAHD1 / RFU, BDP1 / Fold change vs veh, BDP1 / RFU, LRRCC1 / Fold change vs veh, LRRCC1 / RFU, ARID1A / Fold change vs veh, ARID1A / RFU, ZNF146 / Fold change vs veh, ZNF146 / RFU, ZNF330 / Fold change vs veh, ZNF330 / RFU, GPN3 / Fold change vs veh, GPN3 / RFU, C9orf123 / Fold change vs veh, C9orf123 / RFU, N4BP2L2 / Fold change vs veh, N4BP2L2 / RFU, ARFIP1 / Fold change vs veh, ARFIP1 / RFU, FAM179B / Fold change vs veh, FAM179B / RFU, BCL10 / Fold change vs veh, BCL10 / RFU, UHRF1BP1L / Fold change vs veh, UHRF1BP1L / RFU, BET1 / Fold change vs veh, BET1 / RFU, CNOT2 / Fold change vs veh, CNOT2 / RFU, ZNF268 / Fold change vs veh, ZNF268 / Fold change vs veh, ZNF507 / RFU, DGCR2 / Fold change vs veh, DGCR2 / RFU, WDSUB1 / Fold change vs veh, WDSUB1 / Fold change vs veh, HSP90B1 /// MIR3652 / RFU, ADSS / Fold change vs veh, ADSS / RFU, GK / Fold change vs veh, GK / RFU, ZNF148 / Fold change vs veh, ZNF148 / RFU, TAF9 / Fold change vs veh, TAF9 / RFU, SLC1A5 / Fold change vs veh, SLC1A5 / RFU, SLMO2 / Fold change vs veh, SLMO2 / RFU, ABCC4 / Fold change vs veh, ABCC4 / RFU, LOC101060439 /// RAP1B / Fold change vs veh, LOC101060439 /// RAP1B / RFU, RFX7 / Fold change vs veh, RFX7 / RFU, GTPBP10 / Fold change vs veh, GTPBP10 / RFU, CNEP1R1 / Fold change vs veh, CNEP1R1 / RFU, BIVM-ERCC5 /// ERCC5 / Fold change vs veh, BIVM-ERCC5 /// ERCC5 / RFU, ILF3 / Fold change vs veh, ILF3 / RFU 11762660_at / Fold change /veh 11762660_at / RFU VCAN (11757783_s_at) / Fold change /veh VCAN (11757783_s_at) / RFU DDX43 (11728927_at) / Fold change /veh DDX43 (11728927_at) / RFU KRT8 (11758188_x_at) / Fold change /veh KRT8 (11758188_x_at) / RFU NKD1 (11759106_at) / Fold change /veh NKD1 (11759106_at) / RFU SRD5A1 (11742802_a_at) / Fold change /veh SRD5A1 (11742802_a_at) / RFU TPSAB1 /// TPSB2 (11721975_s_at) / Fold change /veh TPSAB1 /// TPSB2 (11721975_s_at) / RFU GSTM3 (11746129_a_at) / Fold change /veh GSTM3 (11746129_a_at) / RFU IL23R (11737362_x_at) / Fold change /veh IL23R (11737362_x_at) / RFU TMEM51 (11727254_a_at) / Fold change /veh TMEM51 (11727254_a_at) / RFU PIWIL2 (11732686_x_at) / Fold change /veh PIWIL2 (11732686_x_at) / RFU ORM1 (11744905_x_at) / Fold change /veh ORM1 (11744905_x_at) / RFU CCDC152 (11743942_at) / Fold change /veh CCDC152 (11743942_at) / RFU ECM1 (11717891_a_at) / Fold change /veh ECM1 (11717891_a_at) / RFU IL23R (11748794_a_at) / Fold change /veh IL23R (11748794_a_at) / RFU TNFAIP8L3 (11732012_x_at) / Fold change /veh TNFAIP8L3 (11732012_x_at) / RFU MBOAT4 (11741988_at) / Fold change /veh MBOAT4 (11741988_at) / RFU 11764193_at / Fold change /veh 11764193_at / RFU TMEM53 (11763286_at) / Fold change /veh TMEM53 (11763286_at) / RFU MAGEB2 (11727129_at) / Fold change /veh MAGEB2 (11727129_at) / RFU TMEM200A (11744735_a_at) / Fold change /veh TMEM200A (11744735_a_at) / RFU CCDC152 (11751479_a_at) / Fold change /veh CCDC152 (11751479_a_at) / RFU FAM211A (11726209_a_at) / Fold change /veh FAM211A (11726209_a_at) / RFU RGS16 (11746705_a_at) / Fold change /veh RGS16 (11746705_a_at) / RFU VCAN (11755009_s_at) / Fold change /veh VCAN (11755009_s_at) / RFU RHOB (11743442_s_at) / Fold change /veh RHOB (11743442_s_at) / RFU RGS16 (11720943_a_at) / Fold change /veh RGS16 (11720943_a_at) / RFU RGS16 (11720944_at) / Fold change /veh RGS16 (11720944_at) / RFU, VPS4B / Fold change vs veh, VPS4B / RFU, CREB1 / Fold change vs veh, CREB1 / RFU, DNAJC13 / Fold change vs veh, DNAJC13 / RFU, GNAQ / Fold change vs veh, GNAQ / RFU, CDK5R1 / Fold change vs veh, CDK5R1 / RFU, ZRANB3 / Fold change vs veh, ZRANB3 / RFU, CUL4A / Fold change vs veh, CUL4A / RFU, CCNY / Fold change vs veh, CCNY / RFU, UFL1 / Fold change vs veh, UFL1 / RFU, COG3 / Fold change vs veh, COG3 / RFU, DIAPH2 / Fold change vs veh, DIAPH2 / RFU, SKA2 / Fold change vs veh, SKA2 / RFU, AFF3 / Fold change vs veh, AFF3 / RFU, LMF1 / Fold change vs veh, LMF1 / RFU, IPO11 / Fold change vs veh, IPO11 / RFU, DFFB / Fold change vs veh, DFFB / RFU, FOXP1 / Fold change vs veh, FOXP1 / RFU, CARD8 / Fold change vs veh, CARD8 / RFU, STRN3 / Fold change vs veh, STRN3 / RFU, ADK / Fold change vs veh, ADK / RFU, RASSF2 / Fold change vs veh, RASSF2 / RFU, WIPF1 / Fold change vs veh, WIPF1 / RFU, LARP1B / Fold change vs veh, LARP1B / RFU, RASA1 / Fold change vs veh, RASA1 / RFU, RB1 / Fold change vs veh, RB1 / RFU, PPFIA1 / Fold change vs veh, PPFIA1 / RFU, MAT2A / Fold change vs veh, MAT2A / RFU, CCT5 / Fold change vs veh, CCT5 / RFU, WDR92 / Fold change vs veh, WDR92 / RFU, CUX1 / Fold change vs veh, CUX1 / RFU, TTC7A / Fold change vs veh, TTC7A / RFU, TMEM135 / Fold change vs veh, TMEM135 / RFU, DEPTOR / Fold change vs veh, DEPTOR / RFU, CPM / Fold change vs veh, CPM / RFU, DNAJB6 / Fold change vs veh, DNAJB6 / RFU, CACNA2D3 / Fold change vs veh, CACNA2D3 / RFU, DTX4 / Fold change vs veh, DTX4 / RFU, TFCP2 / Fold change vs veh, TFCP2 / RFU, GMCL1 /// GMCL1P1 / Fold change vs veh, GMCL1 /// GMCL1P1 / RFU, AEBP2 / Fold change vs veh, AEBP2 / RFU, SNHG1 /// SNORD22 /// SNORD25 /// SNORD26 /// SNORD27 /// SNORD28 /// SNORD29 /// SNORD31 / Fold change vs veh, SNHG1 /// SNORD22 /// SNORD25 /// SNORD26 /// SNORD27 /// SNORD28 /// SNORD29 /// SNORD31 / Fold change (Aza/veh), C12orf56 (ProbeSet 11735607_a_at) / Fold change (ACY-1035/veh), C12orf56 (ProbeSet 11735607_a_at) / Fold change (Aza/veh), FGFR1OP (ProbeSet 11751329_s_at) / Fold change (ACY-1035/veh), FGFR1OP (ProbeSet 11751329_s_at) / Fold change (Aza/veh), VPS36 (ProbeSet 11739960_a_at) / Fold change (ACY-1035/veh), VPS36 (ProbeSet 11739960_a_at) / RFU SYPL1 (11715823_x_at) / Fold change /veh SYPL1 (11715823_x_at) / RFU IGFBP7 (11715501_s_at) / Fold change /veh IGFBP7 (11715501_s_at) / RFU REEP3 (11722064_at) / Fold change /veh REEP3 (11722064_at) / RFU IGLL1 (11728026_x_at) / Fold change /veh IGLL1 (11728026_x_at): dose or concentration left out as unconfirmed
Conditions: MV-4-11 cells, 48 hours

`Nc1ccc(-c2cccs2)cc1NC(=O)c1ccc2c(c1)cc(C1CC1)n2CCN1CCOCC1` [ACY-1035] was tested, and the “RFU GAP43 (11754022_s_at)” value was 68.94 RFU.
